Assay results from patent EP3088535A1 (priority 2015, dated 2016).

Assays:
[1] = target: Reverse Transcriptase from Patient #A infected by HIV-1 (Human immunodeficiency virus type 1, UniProt P04585)
Description: (§1) Transformed cells (that grew in TRP lacking media) were incubated for 16h with shacking in 13 mL rich medium (Yeast extract Peptone Dextrose) at a final cell density 0,06 OD / mL.
(§2) 13 mL cell culture supernatant was collected after centrifugation at 1500 rpm for 5min and kept as the source for in vitro Reverse Transcriptase resistance analysis.
(§3) HIV Reverse Transcriptase resistance to reverse transcriptase inhibitors was analyzed as follows.
(§4) In a final volume of 150µl, 120µl of transformed cell's medium were incubated in 56 mM Tris-HCl, 56 mM KCl and 9 mM MgCl2 with: • 1.76µg of MS2 RNA (SEQ ID NO: 20), and • 0.059 pmoles of 5'biotinylated primer of SEQ ID NO: 19, and • dNTP mixture (1.5pmoles of each one; dATP, dGTP, dCTP, and dTTP), and • 0.19 pmoles of DIG (digoxigenin) modified dUTP, and • 30 µl of one of each concentration out of eight serial one to one dilutions of Reverse Transcriptase inhibitors in water (in this way the inhibitor was further diluted […]).
(§5) The Reverse Transcriptase inhibitor's one to one dilution started at the following concentrations:
(§6) The mixture reaction was incubated at 37°C for an overnight period (16 - 20 hours).
(§7) At the end of the incubation, each reaction mixture was transferred to a streptavidin coated flat bottom well for ELISA based RNA retro-transcribed DNA determination.
(§8) Wells were washed three times with 200µl of wash buffer (0.1%BSA and 0.05% Tween in PBS) before 30min incubation at room temperature with 100µl of a 1:1000 dilution of Peroxidase -conjugated monoclonal mouse anti-DIG (from Jackson Immunosearch ref N°JIR 200-032-156) in wash buffer.

[2] = target: Reverse Transcriptase from Patient #C infected by HIV-1 (Human immunodeficiency virus type 1, UniProt P04585)
Description: as §1, §2, §3, §4, §5, §6, §7, §8

[3] = target: Reverse Transcriptase from Patient #B infected by HIV-1 (Human immunodeficiency virus type 1, UniProt P04585)
Description: as §1, §2, §3, §4, §5, §6, §7, §8

Measured: sensitivity of RT to inhibitor compared with the reference isolate HIV-1 IIIB

Cc1ccnc2c1NC(=O)c1cccnc1N2C1CC1 [NVP, nevirapine]
more sensitive: all assays above
